Measured values as given in patent publication US10111854B2, “Synthesis and use of amine-containing flavonoids as potent anti-leishmanial agents” (The Hong Kong Polytechnic University, priority 2014, dated 2018).

System: L. braziliensis UA847 amastigotes
Assay: Anti-amastigote activity in infected PEM, L. braziliensis UA847
Format: cell-based
Details: Leishmania braziliensis, 72 h, 3 days, Giemsa, read-out: Anti-amastigote activity IC50, L. baziliensis UA847
Procedure, shortened: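 Mouse peritoneal elicited macrophages on cover slips, infected overnight at 37 °C with late-log promastigotes at 20:1 parasite:macrophage, were washed and exposed to compound for 72 h at 37 °C. Giemsa staining gave percent infected macrophages and amastigotes per 100 macrophages, from which IC50 was calculated.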

O=c1cc(-c2ccc(OCCOCCN(Cc3ccccn3)Cc3ccccn3)cc2)oc2ccccc12 [FM09, 2-(4-(2-(2-(bis(pyridin-2-ylmethyl)amino)ethoxy)ethoxy)phenyl)-4H-chromen-4-one] showed an IC50 of 600 ± 100 nM.
